In ChEMBL document CHEMBL1150772, “Chemometric and chemoinformatic analyses of anabolic and androgenic activities of testosterone and dihydrotestosterone analogues” (Bioorg Med Chem, 2008):

test: physchem; conditions: octanol/water
Description: Lipophilicity, log P of the compound

Q: With `C[C@]12CCC(=O)C[C@@H]1CC[C@H]1C3=CC[C@H](O)[C@@]3(C)CC[C@@H]12` as the compound, how does the logP read?
A: The logP was 3.5.

Q: With `CC(=O)O[C@H]1CC[C@H]2[C@@H]3CCC4=C(Cl)C(=O)CC[C@]4(C)[C@H]3CC[C@]12C` as the compound, how does the logP read?
A: The logP was 3.87.

Q: With `C[C@]12CC[C@H]3[C@@H](CCC4=CC(=O)[C@H](F)C[C@@]43C)[C@@H]1CC[C@@H]2O` as the compound, how does the logP read?
A: Its logP is 3.86.

Q: For `CCOC1(O[C@H]2CC[C@H]3[C@@H]4CC[C@H]5CC(=O)CC[C@]5(C)[C@H]4CC[C@]23C)CCCC1`, which logP is on record?
A: Its logP is 6.02.

Q: For `C[C@]12CCC(=O)C=C1CC[C@@H]1[C@@H]2[C@@H](O)C[C@@]2(C)[C@H]1CC[C@]2(C)O`, which logP is on record?
A: Its logP is 2.93.

Q: With `C[C@H]1C[C@@H]2[C@H](CC[C@]3(C)[C@@H](O)CC[C@@H]23)[C@@]2(C)CCC(=O)C[C@H]12` as the compound, how does the logP read?
A: The logP was 4.26.

Q: For `C[C@]12C[C@H]3O[C@H]3C[C@@H]1CC[C@@H]1[C@@H]2CC[C@]2(C)[C@@H](O)CC[C@@H]12`, which logP is on record?
A: Its logP is 3.5.

Q: Which logP does the source give for `C[C@]12C[C@@H]3[C@H](C[C@@H]1CC[C@@H]1[C@@H]2CC[C@@]2(C)[C@H]1CC[C@]2(C)O)C3(F)F` here?
A: The logP was 4.72.

Q: For `C[C@]12C[C@@H](F)C(=O)C[C@@H]1CC[C@@H]1[C@@H]2CC[C@]2(C)[C@@H](O)CC[C@@H]12`, which logP is on record?
A: The logP was 3.96.

Q: With `C[C@]12CC[C@H]3[C@@H](CCC4=CC(=O)CC[C@@]43C)[C@@H]1CC[C@@H]2O` [TESTOSTERONE] as the compound, how does the logP read?
A: Its logP is 2.53.

Q: Which logP does the source give for `CC(=O)O[C@H]1CC[C@H]2[C@@H]3CC[C@H]4C[C@@H]5[C@H](C[C@]4(C)[C@H]3CC[C@]12C)C5(F)F` here?
A: Its logP is 4.77.

Q: For `C[C@]12CC[C@H]3[C@@H](CCC4=CC(=O)CC[C@@]43C)[C@@H]1CC[C@@H]2O[Si](C)(C)C`, which logP is on record?
A: The logP was 3.95.

Q: For `C[C@]12C[C@H](O)CC[C@@H]1CC[C@@H]1[C@@H]2CC[C@@]2(C)[C@H]1CC[C@]2(C)O`, which logP is on record?
A: The logP was 3.8.

Q: With `C[C@@H]1CC2=CC(=O)CC[C@]2(C)[C@H]2CC[C@@]3(C)[C@@H](CC[C@]3(C)O)[C@H]12` [BOLASTERONE] as the compound, how does the logP read?
A: The logP was 4.24.

Q: Which logP does the source give for `C[C@@H]1C[C@@]2(C)[C@@H](CC[C@@H]3[C@@H]2CC[C@]2(C)[C@@H](O)CC[C@@H]32)CC1=O` [DROMOSTANOLONE] here?
A: The logP was 4.5.

Q: For `C[C@]12CC/C(=N/NC(N)=O)C[C@@H]1CC[C@@H]1[C@@H]2CC[C@]2(C)[C@@H](O)CC[C@@H]12`, which logP is on record?
A: Its logP is 3.45.

Q: With `C[C@@H]1CC2=CC(=O)CC[C@]2(C)[C@H]2CC[C@]3(C)C(=O)CC[C@H]3[C@H]12` as the compound, how does the logP read?
A: The logP was 4.69.

Q: With `C[C@@H]1C[C@]2(C)C3=CC[C@@]4(C)C(CC[C@]4(C)O)[C@@H]3CC[C@H]2CC1=O` (stereo partly drawn) as the compound, how does the logP read?
A: Its logP is 4.14.

Q: For `C[C@]12CC[C@H]3[C@@H](CCC4=CC(=O)CC[C@@]43C)[C@@H]1CC[C@@H]2OC(=O)C(Cl)Cl`, which logP is on record?
A: Its logP is 5.04.

Q: With `C[C@]12CC[C@H]3[C@@H](CCC4=CC(=O)CC[C@@]43C)[C@@H]1CC[C@@H]2OC(=O)C(F)Cl` (stereo partly drawn) as the compound, how does the logP read?
A: The logP was 4.7.

Q: For `CC(=O)O[C@H]1CC[C@H]2[C@@H]3CCC4=C(O)C(=O)CC[C@]4(C)[C@H]3CC[C@]12C`, which logP is on record?
A: Its logP is 3.06.

Q: With `C[C@]12CC[C@@H](O)C[C@@H]1CC[C@@H]1[C@@H]2CC[C@]2(C)[C@@H](O)CC[C@@H]12` [ANDROSTANDIOL] as the compound, how does the logP read?
A: Its logP is 5.49.

Q: Which logP does the source give for `CC(=O)O[C@H]1CC[C@H]2[C@@H]3CCC4=CC(=O)CC[C@]4(C)[C@H]3CC[C@]12C` here?
A: The logP was 4.2.

Q: Which logP does the source give for `C[C@]12CC[C@H]3[C@@H](C[C@@H](F)C4=CC(=O)CC[C@@]43C)[C@@H]1CC[C@@H]2O` here?
A: The logP was 3.53.

Q: Which logP does the source give for `C[C@]12CCC(=O)C=C1CC[C@@H]1[C@@H]2C(=O)C[C@]2(C)C(=O)CC[C@@H]12` [ADRENOTERONE] here?
A: Its logP is 3.75.

Q: With `CC(=O)O[C@H]1CC[C@H]2[C@@H]3CCC4=C(Cl)C(=O)CC[C@]4(C)[C@H]3[C@@H](O)C[C@]12C` as the compound, how does the logP read?
A: The logP was 2.88.

Q: For `CC(=O)O[C@H]1CC[C@H]2[C@@H]3CC[C@H]4C[C@H]5[C@@H](C[C@]4(C)[C@H]3CC[C@]12C)C5(F)F`, which logP is on record?
A: Its logP is 4.77.

Q: Which logP does the source give for `C[C@H]1C[C@@H]2[C@H](CC[C@@]3(C)[C@H]2CC[C@]3(C)O)[C@@]2(C)CCC(=O)C=C12` here?
A: Its logP is 4.24.

Q: With `C[C@]12CCC(=O)C[C@@H]1CC[C@@H]1[C@@H]2CC[C@@]2(C)[C@H]1CC[C@]2(C)O` [MESTANOLONE] as the compound, how does the logP read?
A: The logP was 4.01.

Q: Which logP does the source give for `CN(C)CCN/C=C1\C[C@@]2(C)[C@@H](CC[C@@H]3[C@@H]2CC[C@@]2(C)[C@H]3CC[C@]2(C)O)CC1=O` here?
A: The logP was 2.53.

Q: Which logP does the source give for `CCCO[C@@]1(C)CC[C@H]2[C@@H]3C[C@H](C)[C@H]4CC(=O)[C@H](C)C[C@]4(C)[C@H]3CC[C@@]21C` here?
A: Its logP is 5.99.

Q: For `C[C@]12CCC(=O)C=C1CC[C@@H]1[C@@H]2CC[C@@]2(C)[C@H]1CC[C@]2(C)O` [METHYLTESTOSTERONE], which logP is on record?
A: The logP was 3.91.

Q: For `C[C@H]1C[C@@H]2[C@H](CC[C@@]3(C)[C@H]2CC[C@]3(C)O)[C@@]2(C)CCC(=O)C[C@H]12`, which logP is on record?
A: The logP was 4.34.

Q: With `C[C@]12C[C@@H]3O[C@@H]3C[C@@H]1CC[C@@H]1[C@@H]2CC[C@]2(C)[C@@H](O)CC[C@@H]12` as the compound, how does the logP read?
A: The logP was 4.5.

Q: With `COC[C@@H]1C[C@@]2(C)[C@@H](CC[C@@H]3[C@@H]2CC[C@]2(C)[C@@H](O)CC[C@@H]32)CC1=O` as the compound, how does the logP read?
A: Its logP is 3.77.

Q: For `C[C@@H]1C[C@@H]2[C@H](CC[C@]3(C)[C@@H](O)CC[C@@H]23)[C@@]2(C)CCC(=O)C[C@H]12`, which logP is on record?
A: Its logP is 4.26.

Q: Which logP does the source give for `CC1=C[C@@]2(C)C(=CC1=O)C=C[C@@H]1[C@@H]2CC[C@@]2(C)[C@H]1CC[C@]2(C)O` here?
A: Its logP is 4.01.

Q: With `CCCO[C@@]1(C)CC[C@H]2[C@@H]3CC[C@H]4CC(=O)[C@H](C)C[C@]4(C)[C@H]3CC[C@@]21C` as the compound, how does the logP read?
A: The logP was 5.66.

Q: Which logP does the source give for `COC1(O[C@H]2CC[C@H]3[C@@H]4CC[C@H]5CC(=O)CC[C@]5(C)[C@H]4CC[C@]23C)CCCC1` here?
A: The logP was 5.68.

Q: Which logP does the source give for `C[C@@H]1CC2=CC(=O)CC[C@]2(C)[C@H]2CC[C@]3(C)[C@@H](O)CC[C@H]3[C@H]12` here?
A: Its logP is 4.17.

Q: With `C[C@]12C/C(=C\N)C(=O)C[C@@H]1CC[C@@H]1[C@@H]2CC[C@@]2(C)[C@H]1CC[C@]2(C)O` as the compound, how does the logP read?
A: Its logP is 2.8.

Q: Which logP does the source give for `C[C@H]1C/C(=N\O)C[C@@H]2CC[C@@H]3[C@H](CC[C@@]4(C)[C@H]3CC[C@]4(C)O)[C@]21C` here?
A: The logP was 5.

Q: For `C[C@]12C[C@H](O)[C@H]3[C@@H](CCC4=CC(=O)CC[C@@]43C)[C@@H]1CC[C@@H]2O`, which logP is on record?
A: Its logP is 2.85.
